Measurements as given in US12145923B2, “Tetrahydroisoquinoline compound, preparation method therefor, pharmaceutical composition containing same, and use thereof” (SHANGHAI INSTITUTE OF MATERIA MEDICA, CHINESE ACADEMY OF …, priority 2018, dated 2024).
pIC50: −log10 of the molar value. Read-outs that look alike come from different tables or passages of the source.

Legend:
[1] = biological target: Human PDE4D catalytic domain (Homo sapiens (Human), UniProt Q08499); assay: Scintillation Proximity Assay (SPA), inhibition of PDE4D catalytic domain activity; format: biochemical
Protocol: The scintillation Proximity Assay (SPA) method was used to determine the inhibitory effect of compounds on the activity of PDE4D catalytic domain. Human PDE4D catalytic domain protein was obtained by expression and purification in E. coli. […] [^3H]-cAMP, scintillation beads (RPNQO150, Perkin Elmer), and 96-well scintillation microplates (Isoplate-96, Perkin Elmer) were purchased from Perkin Elmer Company.
Finally, 10 μl [^3H]-cAMP (0.005 μCi/μl) was added and incubated for 30 min at 30° C. in a water bath. 50 μl SPA beads was added to quench the reaction, shaked appropriately, and stood for 20 minutes. A microplate scintillation counter was used.

TNF-α secretion in PBMC = assay: Inhibition of LPS-stimulated TNF-α secretion in PBMC (ELISA); format: cell-based; conditions: Homo sapiens, TNF-α secretion in PBMC
From the text: According to the difference in cell density in human blood, PBMC (peripheral blood mononuclear cell, PBMC) was directly separated and purified by gradient centrifugation using lymphocyte separation fluid. The cell type was mononuclear cells in blood, mainly including lymphocytes (T/B), monocytes, macrophages, dendritic cells and other minor cell types, of which lymphocytes account for a large part, which can directly in vitro simulate the blood immune environment.
PBMC cells isolated from human blood were implanted into 96-well plates at 2*10^5/ml; compounds in gradients were added, with at least three replicates for each gradient; After the PBMCs were incubated at 37° C., 5% CO2 for 1 hour, LPS was added (the final concentration was 10 ug/ml) to stimulate PBMC to express TNF-α, and incubated for another 18-20 h at 37° C., 5% C02. The 96-well plate was collected. The background control with no stimulant and stimulation control wells were also set, with a total volume of 200 μl. The culture supernatant was collected by centrifugation, and the expression level of TNF-α in the culture supernatant was detected by ELISA.

[2] = Cytotoxicity on RAW 264.7 cells (CCK-8 method); format: cell-based, mouse; conditions: mouse, RAW 264.7 cells; drug concentration required to cause median cytotoxicity, RAW 264.7
Protocol: (§1) Mouse RAW 264.7 cells were purchased from American Type Culture Collection (Manassas, VA, USA), and cultivated in DMEM culture medium (Hyclone, South Logan, UT, USA) containing 10% fetal bovine serum (Hyclone, South Logan, UT, USA). Cells were collected and counted before use, and inoculated in a 96-well plate (Corning, NY, USA) at 1×10^5/well. […] 20 μl of CCK-8 solution (Dojindo, Kumamoto, Japan) was added at 30 min before the end of the culture. After the cultivation was ended, the absorbance OD value was measured at 450 nm (reference 650 nm) on amicroplate reader (Molecular Devices, Sunnyvale, CA, USA). The toxicity of the compound on RAW 264.7 cells was calculated by dividing the OD value of the test sample by the OD value of the cell control well, which was labeled as the cell survival rate M %.

RAW 264.7 cells = assay: Cytotoxicity on RAW 264.7 cells (CCK-8 method); format: cell-based, mouse
Protocol: as §1

[3] = tested on: tumor necrosis factor-α secretion in RAW 264.7 cells; assay: Inhibition of LPS-stimulated tumor necrosis factor-α secretion in RAW 264.7 cells (ELISA); format: cell-based, mouse
Protocol: After the activation by bacterial lipopolysaccharide (LPS), various inflammatory mediators such as tumor necrosis factor-α will be released; Phosphodiesterase PDE4 is also expressed in macrophages, and the inhibitory activity of the compound on phosphodiesterase PDE4 can be reflected by detecting the secretion of tumor necrosis factor-α.
Under the stimulation of 1 μg/ml LPS (L5886, Sigma, St. Louis, MO, USA), the cells were cultured in a 37° C., 5% CO2 incubator for 4 h. The background control with no stimulant and stimulation control wells were also set, with a total volume of 200 μl. The culture supernatant was collected by centrifugation, and the secretion level of tumor necrosis factor-α in the culture supernatant was detected by enzyme-linked immunosorbent assay. The tumor necrosis factor-α detection kit was purchased from BD Pharmingen (San Diego, CA, USA).

[4] = tested on: acute inflammation model of mouse back air sac; assay: Acute inflammation model of mouse back air sac (carrageenan); format: in vivo; conditions: oral gavage 5 mg/kg
Protocol: On the first day of the experiment, mice were subcutaneously injected with 3 ml of air on the back, and subcutaneously injected with 1.5 ml of air on the back on day 3, and subcutaneously injected with 1 ml of 2% carrageenan (Sigma-Aldrich, St. Louis, MO, USA) on the back on day 6 for sensitization. 4 hours after sensitization, secretion in the air sac was lavaged with phosphate buffer solution. The lavage fluid was used for white blood cell count and inflammatory factor detection. […] Tumor necrosis factor-α and interleukin-6 detection kits were purchased from BD Pharmingen (San Diego, CA, USA).

Rat pharmacokinetic test = format: in vivo
Protocol: Six male healthy rats weighing 150-200 g were randomly divided into 2 groups (n=3). Compounds 14, 16, 17, 18, 22 and 29 of the present invention were administered by gavage and intravenous injection, respectively, at a administration volume of 10 mL/kg. The drug was formulated with DMSO/Tween 80/saline solution (5:5:90, v/v/v). The rats were fasted for 12 h before testing, water ad lib, and uniformly feeded 2 h after administration.
gavage administration: 0.25, 0.5, 1.0, 2.0, 4.0, 6.0, 8.0 and 24 h after administration:
intravenous administration: 5 min, 0.25, 0.5, 1.0, 2.0, 4.0, 6.0, 8.0 and 24 h after administration;
0.3 mL of venous blood was collected at the above time points via the rat eye vein venous plexus, placed in heparinized test tube, centrifuged at 11000 rpm for 5 min. Plasma was separated and frozed in a −20° C. refrigerator.
The concentration of compounds in rat plasma was determined by LC/MS/MS. The pharmacokinetic parameters after administration were calculated by a non-compartmental model of DAS 3.0 software.

[5] = Beagle dog pharmacokinetic test; format: in vivo
Protocol: Six male healthy beagle dogs weighing 9-11 kg were randomly divided into 2 groups (n=3). The compound (S)-C8 of the present invention was administered by gavage administration and intravenous injection, respectively, and the administration volume was 5 mL/kg and 1 mL/kg, respectively. The gavage administration was formulated with 0.5% CMC-Na+0.25% Tween 80, and intravenous administration was formulated with 5% DMSO/40% PEG400/55% saline.
• gavage administration: 0.25, 0.5, 1.0, 2.0, 4.0, 6.0, 8.0 and 24 h after administration; • intravenous administration: 5 min, 0.25, 0.5, 1.0, 2.0, 4.0, 6.0, 8.0 and 24 h after administration; • 1 ml of venous blood was taken at the above time points from the veins of the extremities, placed in an EDTA-2K anticoagulation tube, and centrifuged at 3500 rpm for 10 minutes. Plasma was separated, and frozen in a −20° C. refrigerator. 3. Sample Testing and Data Analysis
The concentration of compound (S)-C8 in Beagle dog plasma was determined by LC/MS/MS.
The pharmacokinetic parameters after administration were calculated by a non-compartmental model of Phoenix 1.3 software (Pharsight, USA).

[6] = male, plasma, intravenous injection, 10 mg/kg
[7] = male, plasma, po, gavage, 20 mg/kg
[8] = male, plasma, intravenous injection, 3 mg/kg
[9] = male, plasma, po, gavage, 10 mg/kg

Sequence of Human PDE4D catalytic domain (Q08499 386-715): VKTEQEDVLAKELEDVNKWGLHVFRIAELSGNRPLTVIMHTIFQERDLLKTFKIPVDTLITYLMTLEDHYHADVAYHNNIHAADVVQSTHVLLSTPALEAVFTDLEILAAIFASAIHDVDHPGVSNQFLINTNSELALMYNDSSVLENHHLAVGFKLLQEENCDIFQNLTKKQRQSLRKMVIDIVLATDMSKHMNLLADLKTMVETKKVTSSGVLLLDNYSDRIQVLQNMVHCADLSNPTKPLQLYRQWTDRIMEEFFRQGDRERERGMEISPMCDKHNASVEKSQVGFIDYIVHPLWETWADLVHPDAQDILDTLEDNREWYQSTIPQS

CCOc1cc2c(cc1OC)CCN(C=O)[C@H]2CCc1c[nH]c2ccc(OC)cc12 [(S)-C8, (S)-7-ethoxy-6-methoxy-1-(2-(5-methoxy-1H-indol-3-yl)ethyl)-3,4-dihydroisoquinoline-2(1H)-formaldehyde]
inhibition at 1 µM ([1]; Compound concentration: 1 μM, read-out: PDE4D enzyme activity inhibition rate %): 95%
IC50 ([1]; PDE4D, unit given as mM, read-out: IC50): 0.08 µM
pIC50 ([1]; read-out: IC50 value of PDE4 inhibitory activity): > 7.00
inhibition at 1 µM (TNF-α secretion in PBMC; 1 μM, read-out: Inhibition rate %): 79.7%
inhibition at 10 µM (TNF-α secretion in PBMC; 10 μM, read-out: Inhibition rate %): 86.8%
pIC50 (TNF-α secretion in PBMC; read-out: IC50): 7.59
pIC50 (TNF-α secretion in PBMC; read-out: IC50 value): 7.59
CC50 at 4 h [2]: > 50 µM
Cell survival rate/% (RAW 264.7 cells; RAW 264.7, 0.5 μM): 89.2%
Cell survival rate/% (RAW 264.7 cells; RAW 264.7, 5 μM): 96.1%
Cell survival rate/% (RAW 264.7 cells; RAW 264.7, 50 μM): 93.8%
inhibition at 0.5 µM ([3]; Mus musculus, RAW264.7, 4 h, RAW 264.7, 0.5 μM, read-out: Tumor necrosis factor-α inhibition rate/%): -6%
inhibition at 5 µM ([3]; Mus musculus, RAW264.7, 4 h, RAW 264.7, 5 μM, read-out: Tumor necrosis factor-α inhibition rate/%): 60.4%
inhibition at 50 µM ([3]; Mus musculus, RAW264.7, 4 h, RAW 264.7, 50 μM, read-out: Tumor necrosis factor-α inhibition rate/%): 58.1%
pIC50 ([3]; Mus musculus, RAW264.7, RAW 264.7): 5.72
inhibitory activity on tumor necrosis factor-α compared with the positive compound Apremilast ([3]; RAW 264.7): comparable or stronger
number of leukocyte infiltration ([4]; air sac lavage): reduce
secretion level of interleukin-6 in lavage [4]: reduce
secretion level of tumor necrosis factor-α in lavage [4]: reduce
inflammatory response ([4]; 24 h and 1 h before sensitization): significantly reduce
AUC0-t (Rat pharmacokinetic test; gavage, 20 mg/kg): 491 ng·h/mL
t1/2 (Rat pharmacokinetic test; gavage, 20 mg/kg): 1.03 h
AUC0-t (Rat pharmacokinetic test; intravenous injection, 10 mg/kg): 2640 ng·h/mL
AUC(0-inf) (Rat pharmacokinetic test; [6]): 2640 ng·h/mL
MRT (Rat pharmacokinetic test; [6]): 0.544 h
half-life (Rat pharmacokinetic test; [6]): 0.707 h
Vd (Rat pharmacokinetic test; male, plasma, intravenous injection, 10 mg/kg, read-out: Vss): 2.1 L/kg
AUC0-t (Rat pharmacokinetic test; male, plasma, iv, 10 mg/kg, intravenous injection, 10 mg/kg, read-out: AUC0-t): 2640 ng·h/mL
bioavailability (Rat pharmacokinetic test; male, plasma, oral, gavage 20 mg/kg vs intravenous 10 mg/kg, dosage standardized, read-out: F (absolute bioavailability)): 9.3%
AUC0-t (Rat pharmacokinetic test; male, plasma, po, 20 mg/kg, gavage, 20 mg/kg, read-out: AUC0-t): 508 ng·h/mL
AUC(0-inf) (Rat pharmacokinetic test; [7]): 508 ng·h/mL
MRT (Rat pharmacokinetic test; [7]): 2 h
Tmax (Rat pharmacokinetic test; [7]): 1.33 h
half-life (Rat pharmacokinetic test; [7]): 1.03 h
AUC0-t ([5]; gavage, 10 mg/kg): 16601 ng·h/mL
t1/2 ([5]; gavage, 10 mg/kg): 2.92 h
AUC0-t ([5]; intravenous injection, 3 mg/kg): 9610 ng·h/mL
AUC(0-inf) [5, 8]: 9800 ng·h/mL
MRT [5, 8]: 2.37 h
half-life [5, 8]: 1.96 h
AUC0-t ([5]; male, plasma, intravenous injection, 3 mg/kg, read-out: AUC0-t): 9610 ng·h/mL
Vd ([5]; male, plasma, intravenous injection, 3 mg/kg, read-out: Vss): 0.96 L/kg
bioavailability ([5]; male, plasma, oral, gavage 10 mg/kg vs intravenous 3 mg/kg, dosage standardized, read-out: F (absolute bioavailability)): 52.3%
Cmax [5, 9]: 4680 ng/mL
MRT [5, 9]: 3.61 h
Tmax [5, 9]: 0.5 h
half-life [5, 9]: 2.92 h
AUC0-t ([5]; male, plasma, po, gavage, 10 mg/kg, read-out: AUC0-t): 16600 ng·h/mL
